Experimental data: PubChem BioAssay (NCI)
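At the GI50, growth is halved. TGI: concentration producing complete growth inhibition.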

Key:
Experiment in all cases: NCI anticancer screen, dose series, 384-well format
786-0 renal = tested on: 786-0 renal
A498 renal = tested on: A498 renal
A549 NSCLC = tested on: A549 NSCLC
ACHN renal = tested on: ACHN renal
BT-549 breast = tested on: BT-549 breast
CAKI-1 renal = tested on: CAKI-1 renal
CCRF-CEM leukemia = tested on: CCRF-CEM leukemia
COLO 205 colon = tested on: COLO 205 colon
DU-145 prostate = tested on: DU-145 prostate
HCC-2998 colon = tested on: HCC-2998 colon
HCT-116 colon = tested on: HCT-116 colon
HCT-15 colon = tested on: HCT-15 colon
HL-60(TB) leukemia = tested on: HL-60(TB) leukemia
HOP-62 NSCLC = tested on: HOP-62 NSCLC
HOP-92 NSCLC = tested on: HOP-92 NSCLC
HT29 colon = tested on: HT29 colon
IGROV1 ovarian = tested on: IGROV1 ovarian
K-562 leukemia = tested on: K-562 leukemia
KM12 colon = tested on: KM12 colon
LOX IMVI melanoma = tested on: LOX IMVI melanoma
M14 melanoma = tested on: M14 melanoma
MALME-3M melanoma = tested on: MALME-3M melanoma
MCF7 breast = tested on: MCF7 breast
MDA-MB-231 breast = tested on: MDA-MB-231 breast
MDA-MB-435 melanoma = tested on: MDA-MB-435 melanoma
MDA-MB-468 breast = tested on: MDA-MB-468 breast
MOLT-4 leukemia = tested on: MOLT-4 leukemia
NCI-H226 lung = tested on: NCI-H226 lung
NCI-H23 lung = tested on: NCI-H23 lung
NCI-H322M lung = tested on: NCI-H322M lung
NCI-H460 NSCLC = tested on: NCI-H460 NSCLC
NCI-H522 lung = tested on: NCI-H522 lung
NCI/ADR-RES ovarian = tested on: NCI/ADR-RES ovarian
OVCAR-3 ovarian = tested on: OVCAR-3 ovarian
OVCAR-4 ovarian = tested on: OVCAR-4 ovarian
OVCAR-5 ovarian = tested on: OVCAR-5 ovarian
OVCAR-8 ovarian = tested on: OVCAR-8 ovarian
PC-3 prostate = tested on: PC-3 prostate
RPMI-8226 leukemia = tested on: RPMI-8226 leukemia
RXF 393 renal = tested on: RXF 393 renal
SF-268 CNS = tested on: SF-268 CNS
SF-295 CNS = tested on: SF-295 CNS
SF-539 CNS = tested on: SF-539 CNS
SK-MEL-2 melanoma = tested on: SK-MEL-2 melanoma
SK-MEL-28 melanoma = tested on: SK-MEL-28 melanoma
SK-MEL-5 melanoma = tested on: SK-MEL-5 melanoma
SK-OV-3 ovarian = tested on: SK-OV-3 ovarian
SN12C renal = tested on: SN12C renal
SNB-19 CNS = tested on: SNB-19 CNS
SR leukemia = tested on: SR leukemia
SW-620 colon = tested on: SW-620 colon
T-47D breast = tested on: T-47D breast
TK-10 renal = tested on: TK-10 renal
U251 glioblastoma = tested on: U251 glioblastoma
UACC-257 melanoma = tested on: UACC-257 melanoma
UACC-62 melanoma = tested on: UACC-62 melanoma
UO-31 renal = tested on: UO-31 renal
EKVX NSCLC = tested on: EKVX NSCLC
HS 578T breast = tested on: HS 578T breast
SNB-75 CNS = tested on: SNB-75 CNS

## COc1ccccc1-c1nccc(COc2ccccc2C[C@@H](Oc2ncnc3sc(-c4ccc(F)cc4)c(-c4ccc(OCCN5CCN(C)CC5)c(Cl)c4C)c23)C(=O)O)n1
786-0 renal
  GI50: 1.78 µM
  TGI: 3.21 µM
A498 renal
  GI50: 2.26 µM
  TGI: 5.43 µM
A549 NSCLC
  GI50: 10.6 µM
  TGI: 22.5 µM
ACHN renal
  GI50: 4.57 µM
  TGI: 14.8 µM
BT-549 breast
  GI50: 1.27 µM
  TGI: 2.55 µM
CAKI-1 renal
  GI50: 2.75 µM
  TGI: 6.51 µM
CCRF-CEM leukemia
  GI50: 0.0296 µM
  TGI: 0.801 µM
COLO 205 colon
  GI50: 1.82 µM
  TGI: 3.54 µM
DU-145 prostate
  GI50: 2.13 µM
  TGI: 4.58 µM
HCC-2998 colon
  GI50: 1.19 µM
  TGI: 2.52 µM
HCT-116 colon
  GI50: 1.94 µM
  TGI: 3.53 µM
HCT-15 colon
  GI50: 5.29 µM
  TGI: 16.2 µM
HL-60(TB) leukemia
  GI50: < 0.01 µM
  TGI: < 0.01 µM
HOP-62 NSCLC
  GI50: 1.71 µM
  TGI: 3.27 µM
HOP-92 NSCLC
  GI50: 1.72 µM
  TGI: 3.1 µM
HT29 colon
  GI50: 1.83 µM
  TGI: 3.33 µM
IGROV1 ovarian
  GI50: 1.66 µM
  TGI: 3.09 µM
K-562 leukemia
  GI50: 1.93 µM
  TGI: 3.48 µM
KM12 colon
  GI50: 1.73 µM
  TGI: 3.14 µM
LOX IMVI melanoma
  GI50: 1.98 µM
  TGI: 3.42 µM
M14 melanoma
  GI50: 1.54 µM
  TGI: 2.89 µM
MALME-3M melanoma
  GI50: 1.08 µM
  TGI: 2.29 µM
MCF7 breast
  GI50: 0.0462 µM
  TGI: 1.04 µM
MDA-MB-231 breast
  GI50: 1.57 µM
  TGI: 2.96 µM
MDA-MB-435 melanoma
  GI50: 0.391 µM
  TGI: 1.6 µM
MDA-MB-468 breast
  GI50: 0.0109 µM
  TGI: 0.054 µM
MOLT-4 leukemia
  GI50: < 0.01 µM
  TGI: 0.0177 µM
NCI-H226 lung
  GI50: 2.04 µM
  TGI: 3.64 µM
NCI-H23 lung
  GI50: 0.0453 µM
  TGI: 0.38 µM
NCI-H322M lung
  GI50: 1.91 µM
  TGI: 3.72 µM
NCI-H460 NSCLC
  GI50: 1.33 µM
  TGI: 3.54 µM
NCI-H522 lung
  GI50: < 0.01 µM
  TGI: 0.0959 µM
NCI/ADR-RES ovarian
  GI50: 26.8 µM
  TGI: > 100 µM
OVCAR-3 ovarian
  GI50: 1.85 µM
  TGI: 3.27 µM
OVCAR-4 ovarian
  GI50: 0.163 µM
  TGI: 3.11 µM
OVCAR-5 ovarian
  GI50: 2.73 µM
  TGI: 6.27 µM
OVCAR-8 ovarian
  GI50: 1.77 µM
  TGI: 3.24 µM
PC-3 prostate
  GI50: 1.82 µM
  TGI: 3.24 µM
RPMI-8226 leukemia
  GI50: < 0.01 µM
  TGI: < 0.01 µM
RXF 393 renal
  GI50: 0.0786 µM
  TGI: 1.04 µM
SF-268 CNS
  GI50: 1.57 µM
  TGI: 2.93 µM
SF-295 CNS
  GI50: 1.4 µM
  TGI: 2.72 µM
SF-539 CNS
  GI50: 1.2 µM
  TGI: 2.47 µM
SK-MEL-2 melanoma
  GI50: < 0.01 µM
  TGI: < 0.01 µM
SK-MEL-28 melanoma
  GI50: 1.42 µM
  TGI: 2.73 µM
SK-MEL-5 melanoma
  GI50: 1.47 µM
  TGI: 2.8 µM
SK-OV-3 ovarian
  GI50: 2.95 µM
  TGI: 9.17 µM
SN12C renal
  GI50: 1.52 µM
  TGI: 2.9 µM
SNB-19 CNS
  GI50: 1.87 µM
  TGI: 3.36 µM
SR leukemia
  GI50: < 0.01 µM
  TGI: < 0.01 µM
SW-620 colon
  GI50: 1.88 µM
  TGI: 3.36 µM
T-47D breast
  GI50: 1.58 µM
  TGI: 3.43 µM
TK-10 renal
  GI50: 2.38 µM
  TGI: 5.65 µM
U251 glioblastoma
  GI50: 1.81 µM
  TGI: 3.37 µM
UACC-257 melanoma
  GI50: 1.7 µM
  TGI: 3.4 µM
UACC-62 melanoma
  GI50: 0.0206 µM
  TGI: 0.057 µM
UO-31 renal
  GI50: 4.23 µM
  TGI: 14.2 µM

## O=C1c2c(O)ccc(O)c2C(=O)c2c(NCCNCCO)ccc(NCCNCCO)c21
786-0 renal
  GI50: 0.0103 µM
  TGI: 0.246 µM
A498 renal
  GI50: 0.0114 µM
  TGI: 0.217 µM
A549 NSCLC
  GI50: < 0.01 µM
  TGI: 0.181 µM
ACHN renal
  GI50: 0.0333 µM
  TGI: 0.251 µM
BT-549 breast
  GI50: 0.0155 µM
  TGI: 0.195 µM
CAKI-1 renal
  GI50: 0.0133 µM
  TGI: 0.642 µM
CCRF-CEM leukemia
  GI50: < 0.01 µM
  TGI: < 0.01 µM
DU-145 prostate
  GI50: 0.0196 µM
  TGI: 0.65 µM
EKVX NSCLC
  GI50: 0.589 µM
  TGI: 3.54 µM
HCT-116 colon
  GI50: < 0.01 µM
  TGI: 0.242 µM
HCT-15 colon
  GI50: < 0.01 µM
  TGI: 0.173 µM
HL-60(TB) leukemia
  GI50: < 0.01 µM
  TGI: < 0.01 µM
HOP-62 NSCLC
  GI50: < 0.01 µM
  TGI: 0.016 µM
HOP-92 NSCLC
  GI50: 0.0248 µM
  TGI: 1.19 µM
HS 578T breast
  GI50: < 0.01 µM
  TGI: 0.181 µM
HT29 colon
  GI50: 0.0344 µM
  TGI: 0.187 µM
IGROV1 ovarian
  GI50: 0.185 µM
  TGI: 5.37 µM
K-562 leukemia
  GI50: 0.0481 µM
  TGI: 0.24 µM
KM12 colon
  GI50: 0.0447 µM
  TGI: 0.284 µM
LOX IMVI melanoma
  GI50: 0.0138 µM
  TGI: 0.155 µM
M14 melanoma
  GI50: 0.0177 µM
  TGI: 0.334 µM
MALME-3M melanoma
  GI50: 0.0611 µM
  TGI: 0.388 µM
MCF7 breast
  GI50: < 0.01 µM
  TGI: 1.18 µM
MDA-MB-231 breast
  GI50: 0.0187 µM
  TGI: 0.0979 µM
MDA-MB-435 melanoma
  GI50: 0.125 µM
  TGI: 1.1 µM
MDA-MB-468 breast
  GI50: 0.0168 µM
  TGI: 0.0598 µM
MOLT-4 leukemia
  GI50: < 0.01 µM
  TGI: < 0.01 µM
NCI-H226 lung
  GI50: 0.0134 µM
  TGI: 0.163 µM
NCI-H23 lung
  GI50: 0.0129 µM
  TGI: 0.102 µM
NCI-H322M lung
  GI50: 0.313 µM
  TGI: 1.76 µM
NCI-H522 lung
  GI50: 0.0146 µM
  TGI: 0.058 µM
NCI/ADR-RES ovarian
  GI50: 4.58 µM
  TGI: > 100 µM
OVCAR-3 ovarian
  GI50: 0.186 µM
  TGI: 1.16 µM
OVCAR-4 ovarian
  GI50: 0.171 µM
  TGI: 0.66 µM
OVCAR-5 ovarian
  GI50: 0.0243 µM
  TGI: 0.284 µM
OVCAR-8 ovarian
  GI50: < 0.01 µM
  TGI: 0.152 µM
PC-3 prostate
  GI50: 0.135 µM
  TGI: 0.545 µM
RPMI-8226 leukemia
  GI50: < 0.01 µM
  TGI: 0.0371 µM
RXF 393 renal
  GI50: 0.061 µM
  TGI: 0.21 µM
SF-268 CNS
  GI50: < 0.01 µM
  TGI: 0.154 µM
SF-295 CNS
  GI50: 0.0106 µM
  TGI: 0.0447 µM
SF-539 CNS
  GI50: < 0.01 µM
  TGI: 0.124 µM
SK-MEL-2 melanoma
  GI50: 0.0839 µM
  TGI: 0.189 µM
SK-MEL-28 melanoma
  GI50: 0.116 µM
  TGI: 1.37 µM
SK-OV-3 ovarian
  GI50: 0.0177 µM
  TGI: 0.661 µM
SN12C renal
  GI50: < 0.01 µM
  TGI: 0.0555 µM
SNB-19 CNS
  GI50: 0.0105 µM
  TGI: 1.12 µM
SNB-75 CNS
  GI50: 0.0229 µM
  TGI: 0.13 µM
SW-620 colon
  GI50: < 0.01 µM
  TGI: 0.507 µM
T-47D breast
  GI50: 0.0298 µM
  TGI: 1.42 µM
TK-10 renal
  GI50: 0.121 µM
  TGI: 0.358 µM
U251 glioblastoma
  GI50: < 0.01 µM
  TGI: 0.114 µM
UACC-257 melanoma
  GI50: 1.1 µM
  TGI: 2.37 µM
UACC-62 melanoma
  GI50: < 0.01 µM
  TGI: 0.148 µM
UO-31 renal
  GI50: 0.195 µM
  TGI: 1.65 µM
